Test results from US20240002388A1, “PYRIMIDINONE COMPOUNDS AND USES THEREOF” (HUTCHISON MEDIPHARMA LIMITED, priority 2020, published 2024).

Assays:
[1] = test system: U937 cell line (human histiocytic lymphoma cell line); test: U937 cell viability assay (TNF-α + Z-VAD-FMK induced necroptosis); type: cell-based; settings: Homo sapiens, U-937; U937 cells, hTNF-α 0.1 μg/mL + Z-VAD-FMK 50 μM, 20 hours, CellTiter-Glo
Experimental: U937 cell line (human histiocytic lymphoma cell line): purchased from ATCC (American Type Culture Collection) Cell Bank, cultured in a 5% CO2, 37° C. incubator, and RPMI 1640 medium which contains L-glutamine, 1.5 g/L sodium bicarbonate, 2.383 g/L HEPES solution, 0.11 g/L sodium pyruvate and 4.5 g/L glucose, plus 10% fetal bovine serum (FBS) was used. • RPMI 1640 medium: GIBCO, Cat #A10491-01; • Fetal bovine serum (FBS): GIBCO, Cat #10099-141C; • Dimethyl sulfoxide (DMSO): Sigma, Cat #D2650; • Recombinant Human TNF-alpha Protein (hTNF-α): R&D system, Cat #210-TA-100; • Pan-Caspase inhibitor (Z-VAD-FMK): Selleckchem, Cat #S7023; • CellTiter-Glo 2.0 Cell Viability Assay kit: Promega, Cat #G9242; • Microwell plate reader: Envision, Perkin Elmer; • 96-well plate: Corning, Cat #3917.
The U937 cells at the logarithmic phase were taken out, centrifuged to remove the medium, washed with PRMI 1640 medium containing 1% FBS, and diluted with 1% FBS-containing RPMI 1640 medium to 2.5×10^5 cells/ml, inoculated at 70 μL/well into a 96-well plate, i.e., 1.75×10^4 cells/well. The plate was cultured in a 5% CO2, 37° C. cell incubator. After incubating for 1 hour, the test compound was diluted to the corresponding concentrations using DMSO with 3-fold serial dilution, then the corresponding concentration of DMSO diluted solution was diluted into 1% FBS-containing RPMI 1640 medium, and 10 μL/well of the diluted test compound with different concentrations (final concentration of test compound was 1.0, 0.333, 0.111, 0.037, 0.012, 0.004, 0.0014 and 0.0005 μM, while final concentration of DMSO was 0.3%) or 10 μL/well control solution (3% DMSO) were added to the cell culture system respectively, with the total volume being 80 μL/well; Then 10 μL of Z-VAD-FMK solution diluted with 1% FBS-containing RPMI 1640 medium (final concentration of 50 μM) or 10 μL of control solution (2.5% DMSO) was added to each well, with the total volume being 90 μL/well. The plate was incubated in a 5% CO2, 37° C. cell culture incubator for 1 hour.
(§1) After being cultured for 1 hour, 10 μL of human recombinant TNF-α protein diluted with 1% FBS-containing RPMI 1640 medium (final concentration of 0.1 μg/mL) or 10 μL/well control solution (1% FBS-containing RPMI 1640 medium) was added to each well. The plate was incubated in a 5% CO2, 37° C. cell culture incubator for 20 hours.
(§2) The cell culture plate was taken out from the incubator, and left to stand at room temperature for 30 minutes. Meanwhile, CellTiter-Glo viability assay kit was put from freezer to room temperature, and 50 μL of CellTiter-Glo reagent was added to all wells, the plate was shaken for 1 minutes, protected from light at room temperature for 10 minutes then read the plate on Envision to get the luminescence signal.
(§3) The 96-well plate in the dark was taken out, and the chemiluminescence was determined using the Envision microwell plate reader as the signal value of each well.
(§4) The mean signal value of the wells of the mixed solution of recombinant human TNF-alpha protein (final concentration of 0.1 μg/mL) and Pan-Caspase inhibitor (final concentration of 50 μM) was used as the lower value, and the mean signal value of the wells without stimulation was used as the upper value. According to the signal value of each well, the inhibition rate of each concentration of every compound was calculated, and the IC50 value of compound was obtained by Model 205 in XL-Fit 5.3 software (ID Business Solutions Limited).
(§5) Inhibition rate %=[(Luminescence readout of treated compound−Luminescence readout of positive control)/(Luminescence readout of negative control−Luminescence readout of positive control)]×100%, wherein

[2] = test system: L929 cell line (mouse fibroblastoma cell line); test: L929 cell viability assay (mTNF-α + Z-VAD-FMK induced necroptosis); type: cell-based; settings: Mus musculus, L929, 20 h, L929 cells, mTNF-α 0.1 μg/mL + Z-VAD-FMK 5 μM, CellTiter-Glo
Experimental: L929 cell line (mouse fibroblastoma cell line): purchased from ATCC (American Type Culture Collection) Cell Bank, cultured in 5% CO2, 37° C. incubator, and MEM medium which contains L-Glutamine, with 10% FBS was used. • MEM medium: GIBCO, Cat #11095080; • Fetal bovine serum (FBS): GIBCO, Cat #10099-141C; • Dimethyl sulfoxide (DMSO): Sigma, Cat #D2650; • 0.25% Trypsin-EDTA: GIBCO, Cat #25200072; • Recombinant Mouse TNF-alpha Protein (mTNF-α): R&D system, Cat #410-MT-050; • Pan-Caspase inhibitor (Z-VAD-FMK): Selleckchem, Cat #S7023; • CellTiter-Glo 2.0 Cell Viability Assay kit: Promega, Cat #G9242; • Microwell plate reader: Envision, Perkin Elmer; • 96-well plate: Corning, Cat #3917.
The L929 cells at the logarithmic phase were taken out, and the supernatant was discarded. After trypsinization and cell shedding, 10% FBS-containing medium was added for neutralization, and the supernatant was discarded after centrifugation. The cells were re-suspended using 10% FBS-containing medium, adjusted to 7×10^4 cells/ml, added to 96-well microplate at 70 μL/well, i.e., 4.9×10^3 cells/well. Then the plate was incubated in a 5% CO2, 37° C. cell incubator overnight.
After incubating overnight, the 96-well plate was taken out, the medium was discarded, and the plate was washed with 1% FBS-containing MEM medium. Then 1% FBS-containing MEM medium was added at 70 μL/well, and the plate was cultured in a 5% CO2, 37° C. cell incubator. After incubating for 1 hour, the test compound was diluted to the corresponding concentrations using DMSO with 3-fold serial dilution, then the corresponding concentration of DMSO diluted solution was diluted into 1% FBS-containing MEM medium, and 10 μL/well of the diluted test compound with different concentrations (final concentrations of test compound were 10, 3.33, 1.11, 0.37, 0.12, 0.04, 0.014 and 0.005 μM, while final concentration of DMSO was 0.3%) or 10 μL/well control solution (3% DMSO) were added to the cell culture system respectively, with the total volume being 80 μL/well. Then 10 μL of Z-VAD-FMK solution diluted with 1% FBS-containing MEM medium (final concentration of 5 μM) or 10 μL of control solution (2.5% DMSO) was added to each well, with the total volume being 90 μL/well. The plate was incubated in a 5% CO2, 37° C. cell culture incubator for 1 hour.
as §1, with “incubating” for “being cultured”, “of” for “of human”, “recombinant mouse” for “recombinant”, “protein solution” for “protein”, “MEM” for “RPMI 1640”, “μL” for “μL/well”
as §2, §3
as §4, with “recombinant mouse” for “recombinant human”, “of 5” for “of 50”
as §5

CC(C)n1cncc(-c2ccc(C3(NC(=O)c4nnc(Cc5ccccc5)[nH]4)CC3)cc2)c1=O [Compound 14]
IC50 [1]: 0.003 µM | IC50 [2]: 0.181 µM
